Experimental data: ChEMBL document CHEMBL5212743, “Selectivity Literature for EUbOPEN Chemogenomics Library wave 3” (2023)
Values belong to the compound of their own block, whether it stands above or below them.

What was measured:
[1] = biological target: Serine/threonine-protein kinase LATS1 (Homo sapiens, UniProt O95835); assay: Selectivity interaction (ScanMAX (DiscoverX, competition-binding assay)) EUB0000285b LATS1
[2] = biological target: T1, Serine/threonine-protein kinase PAK 3 (Homo sapiens, UniProt O75914); assay: Selectivity interaction (ScanMAX (DiscoverX, competition-binding assay)) EUB0000285b PAK3
[3] = biological target: Serine/threonine-protein kinase 4 (Homo sapiens, UniProt Q13043); assay: Selectivity interaction (ScanMAX (DiscoverX, competition-binding assay)) EUB0000285b STK4
[4] = biological target: Serine/threonine-protein kinase 4 (Homo sapiens) (UniProt Q13043); assay: Selectivity interaction (ScanMAX (DiscoverX)) EUB0000285b STK4; settings: at 1 µM
[5] = biological target: T2, Leukocyte tyrosine kinase receptor (Homo sapiens, UniProt P29376); assay: Selectivity interaction (ScanMAX (DiscoverX)) EUB0000285b LTK; settings: at 1 µM
[6] = biological target: T2, Leukocyte tyrosine kinase receptor; assay: Selectivity interaction (ScanMAX (DiscoverX, competition-binding assay)) EUB0000285b LTK
[7] = biological target: T3, Serine/threonine-protein kinase LATS1 (Homo sapiens) (UniProt O95835); assay: Selectivity interaction (ScanMAX (DiscoverX)) EUB0000285b LATS1; settings: at 1 µM
T3 sequence (whole entry): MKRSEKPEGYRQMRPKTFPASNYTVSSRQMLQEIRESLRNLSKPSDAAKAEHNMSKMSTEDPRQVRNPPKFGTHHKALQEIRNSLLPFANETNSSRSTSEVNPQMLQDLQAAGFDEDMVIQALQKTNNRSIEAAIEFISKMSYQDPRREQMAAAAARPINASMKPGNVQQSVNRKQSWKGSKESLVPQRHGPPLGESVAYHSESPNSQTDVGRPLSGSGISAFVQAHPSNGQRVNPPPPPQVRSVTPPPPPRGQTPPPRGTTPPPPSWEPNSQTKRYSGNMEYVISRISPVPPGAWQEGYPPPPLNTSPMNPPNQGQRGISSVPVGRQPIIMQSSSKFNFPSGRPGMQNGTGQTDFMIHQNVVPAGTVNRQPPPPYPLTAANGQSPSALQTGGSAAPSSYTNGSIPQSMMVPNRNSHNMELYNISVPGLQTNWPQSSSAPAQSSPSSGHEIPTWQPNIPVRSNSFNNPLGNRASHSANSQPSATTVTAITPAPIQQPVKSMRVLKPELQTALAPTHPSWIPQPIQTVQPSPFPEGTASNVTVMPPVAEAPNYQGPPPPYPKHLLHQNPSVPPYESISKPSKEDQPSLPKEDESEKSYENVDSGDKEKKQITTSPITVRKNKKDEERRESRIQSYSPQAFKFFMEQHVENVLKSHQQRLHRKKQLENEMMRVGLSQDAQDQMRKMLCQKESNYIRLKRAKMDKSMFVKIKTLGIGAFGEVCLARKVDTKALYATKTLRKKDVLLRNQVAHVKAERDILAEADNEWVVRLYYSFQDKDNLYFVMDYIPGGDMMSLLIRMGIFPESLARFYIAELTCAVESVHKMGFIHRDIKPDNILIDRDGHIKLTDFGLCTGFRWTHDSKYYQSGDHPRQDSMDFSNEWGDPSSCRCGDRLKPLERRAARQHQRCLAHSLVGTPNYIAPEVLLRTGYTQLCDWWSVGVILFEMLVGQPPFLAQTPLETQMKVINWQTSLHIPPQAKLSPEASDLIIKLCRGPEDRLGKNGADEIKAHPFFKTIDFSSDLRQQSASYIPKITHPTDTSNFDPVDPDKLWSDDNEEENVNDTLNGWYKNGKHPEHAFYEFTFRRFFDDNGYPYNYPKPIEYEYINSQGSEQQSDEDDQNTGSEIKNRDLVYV

[8] = biological target: T4, Serine/threonine-protein kinase 32C (Homo sapiens, UniProt Q86UX6); assay: Selectivity interaction (ScanMAX (DiscoverX)) EUB0000285b STK32C; settings: at 1 µM
[9] = biological target: Testis-specific serine/threonine-protein kinase 1 (Homo sapiens) (UniProt Q9BXA7); assay: Selectivity interaction (ScanMAX (DiscoverX)) EUB0000285b TSSK1B; settings: at 1 µM
[10] = biological target: T1, Serine/threonine-protein kinase PAK 3; assay: Selectivity interaction (ScanMAX (DiscoverX)) EUB0000285b PAK3; settings: at 1 µM
[11] = biological target: T4, Serine/threonine-protein kinase 32C; assay: Selectivity interaction (ScanMAX (DiscoverX, competition-binding assay)) EUB0000285b STK32C
[12] = biological target: Testis-specific serine/threonine-protein kinase 1 (Homo sapiens, UniProt Q9BXA7); assay: Selectivity interaction (ScanMAX (DiscoverX, competition-binding assay)) EUB0000285b TSSK1B
[13] = biological target: T5, Tyrosine-protein kinase SYK (Homo sapiens, UniProt P43405); assay: Selectivity interaction (ScanMAX (DiscoverX, competition-binding assay)) EUB0000232b SYK
[14] = biological target: T6, Epidermal growth factor receptor (Homo sapiens, UniProt P00533); assay: (§1) Selectivity interaction (ScanMAX (DiscoverX)) EUB0000232b EGFR; settings: at 1 µM
[15] = biological target: T7, STE20-like serine/threonine-protein kinase (Homo sapiens, UniProt Q9H2G2); assay: Selectivity interaction (ScanMAX (DiscoverX)) EUB0000232b SLK; settings: at 1 µM
[16] = biological target: T5, Tyrosine-protein kinase SYK; assay: Selectivity interaction (ScanMAX (DiscoverX)) EUB0000232b SYK; settings: at 1 µM
[17] = biological target: T6, Epidermal growth factor receptor; assay: Selectivity interaction (ScanMAX (DiscoverX, competition-binding assay)) EUB0000232b EGFR
[18] = system: Epidermal growth factor receptor (Homo sapiens), P00533 [L858R]; assay: as §1; settings: at 1 µM
[19] = biological target: T6, Epidermal growth factor receptor; assay: as §1; settings: at 1 µM; remark: listed apart in the source
[20] = biological target: T7, STE20-like serine/threonine-protein kinase; assay: Selectivity interaction (ScanMAX (DiscoverX, competition-binding assay)) EUB0000232b SLK
[21] = biological target: T8, Tyrosine-protein kinase Lck (Homo sapiens, UniProt P06239); assay: Selectivity interaction (ScanMAX (DiscoverX, competition-binding assay)) EUB0000232b LCK
Target sequence in this assay (P06239 whole entry): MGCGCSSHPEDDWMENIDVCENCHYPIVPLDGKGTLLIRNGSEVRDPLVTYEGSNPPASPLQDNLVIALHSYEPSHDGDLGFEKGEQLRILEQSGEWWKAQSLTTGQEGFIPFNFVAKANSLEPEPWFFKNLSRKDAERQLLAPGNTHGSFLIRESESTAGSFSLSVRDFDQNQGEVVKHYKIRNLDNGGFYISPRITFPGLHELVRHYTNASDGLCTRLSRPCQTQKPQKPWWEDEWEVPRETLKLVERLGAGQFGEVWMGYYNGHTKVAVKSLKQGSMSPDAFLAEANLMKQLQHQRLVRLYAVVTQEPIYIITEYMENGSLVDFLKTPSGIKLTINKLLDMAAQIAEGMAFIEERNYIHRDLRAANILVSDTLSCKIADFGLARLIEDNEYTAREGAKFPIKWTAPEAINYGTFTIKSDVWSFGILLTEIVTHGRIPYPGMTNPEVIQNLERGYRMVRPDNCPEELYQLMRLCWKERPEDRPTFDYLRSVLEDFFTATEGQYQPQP

[22] = biological target: T8, Tyrosine-protein kinase Lck; assay: Selectivity interaction (ScanMAX (DiscoverX)) EUB0000232b LCK; settings: at 1 µM
Target sequence in this assay (P06239 2-509 limits assumed): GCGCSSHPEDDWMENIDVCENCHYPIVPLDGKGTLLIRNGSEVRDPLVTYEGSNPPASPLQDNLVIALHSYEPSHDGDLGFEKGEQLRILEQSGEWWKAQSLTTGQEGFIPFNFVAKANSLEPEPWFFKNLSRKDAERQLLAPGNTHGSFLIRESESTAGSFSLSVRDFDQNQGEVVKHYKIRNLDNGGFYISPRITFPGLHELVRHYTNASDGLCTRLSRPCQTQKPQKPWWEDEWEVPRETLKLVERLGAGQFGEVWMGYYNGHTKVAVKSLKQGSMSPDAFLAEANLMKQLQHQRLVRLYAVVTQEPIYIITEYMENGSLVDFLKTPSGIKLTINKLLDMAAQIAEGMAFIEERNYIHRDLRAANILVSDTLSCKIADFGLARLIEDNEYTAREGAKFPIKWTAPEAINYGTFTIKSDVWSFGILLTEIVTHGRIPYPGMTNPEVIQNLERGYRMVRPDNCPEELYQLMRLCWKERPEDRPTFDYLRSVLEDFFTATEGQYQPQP

T6 sequence (P00533 whole entry): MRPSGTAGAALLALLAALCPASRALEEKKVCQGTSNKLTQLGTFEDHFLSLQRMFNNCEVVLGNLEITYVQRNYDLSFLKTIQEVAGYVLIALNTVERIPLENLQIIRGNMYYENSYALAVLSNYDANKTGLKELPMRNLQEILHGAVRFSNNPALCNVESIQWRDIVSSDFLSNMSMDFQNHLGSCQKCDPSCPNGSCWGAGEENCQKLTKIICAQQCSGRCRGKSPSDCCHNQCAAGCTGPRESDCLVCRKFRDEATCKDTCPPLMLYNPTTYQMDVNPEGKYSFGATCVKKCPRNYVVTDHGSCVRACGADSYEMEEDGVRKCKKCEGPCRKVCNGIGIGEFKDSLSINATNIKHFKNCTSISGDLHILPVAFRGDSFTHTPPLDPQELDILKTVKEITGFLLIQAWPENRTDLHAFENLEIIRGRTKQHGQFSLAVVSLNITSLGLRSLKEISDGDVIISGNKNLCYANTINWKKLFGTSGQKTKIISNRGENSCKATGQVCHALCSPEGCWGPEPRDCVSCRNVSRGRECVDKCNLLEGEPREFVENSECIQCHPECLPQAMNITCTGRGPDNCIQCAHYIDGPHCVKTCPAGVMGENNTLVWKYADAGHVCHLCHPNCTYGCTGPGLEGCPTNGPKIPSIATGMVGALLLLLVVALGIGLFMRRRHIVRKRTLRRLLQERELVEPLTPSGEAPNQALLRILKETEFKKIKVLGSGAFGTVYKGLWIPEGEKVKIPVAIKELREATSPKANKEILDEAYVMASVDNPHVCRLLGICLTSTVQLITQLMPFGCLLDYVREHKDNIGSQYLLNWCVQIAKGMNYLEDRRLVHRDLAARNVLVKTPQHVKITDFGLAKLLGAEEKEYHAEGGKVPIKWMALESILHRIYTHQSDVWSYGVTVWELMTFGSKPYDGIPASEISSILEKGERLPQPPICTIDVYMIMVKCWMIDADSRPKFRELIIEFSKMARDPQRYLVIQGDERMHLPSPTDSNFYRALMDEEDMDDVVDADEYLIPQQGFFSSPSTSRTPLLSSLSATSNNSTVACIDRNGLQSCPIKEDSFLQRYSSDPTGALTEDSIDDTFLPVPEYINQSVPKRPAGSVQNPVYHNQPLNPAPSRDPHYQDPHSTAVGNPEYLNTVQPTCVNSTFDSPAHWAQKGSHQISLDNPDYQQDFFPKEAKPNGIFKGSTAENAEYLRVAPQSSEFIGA
T2 sequence (P29376 whole entry): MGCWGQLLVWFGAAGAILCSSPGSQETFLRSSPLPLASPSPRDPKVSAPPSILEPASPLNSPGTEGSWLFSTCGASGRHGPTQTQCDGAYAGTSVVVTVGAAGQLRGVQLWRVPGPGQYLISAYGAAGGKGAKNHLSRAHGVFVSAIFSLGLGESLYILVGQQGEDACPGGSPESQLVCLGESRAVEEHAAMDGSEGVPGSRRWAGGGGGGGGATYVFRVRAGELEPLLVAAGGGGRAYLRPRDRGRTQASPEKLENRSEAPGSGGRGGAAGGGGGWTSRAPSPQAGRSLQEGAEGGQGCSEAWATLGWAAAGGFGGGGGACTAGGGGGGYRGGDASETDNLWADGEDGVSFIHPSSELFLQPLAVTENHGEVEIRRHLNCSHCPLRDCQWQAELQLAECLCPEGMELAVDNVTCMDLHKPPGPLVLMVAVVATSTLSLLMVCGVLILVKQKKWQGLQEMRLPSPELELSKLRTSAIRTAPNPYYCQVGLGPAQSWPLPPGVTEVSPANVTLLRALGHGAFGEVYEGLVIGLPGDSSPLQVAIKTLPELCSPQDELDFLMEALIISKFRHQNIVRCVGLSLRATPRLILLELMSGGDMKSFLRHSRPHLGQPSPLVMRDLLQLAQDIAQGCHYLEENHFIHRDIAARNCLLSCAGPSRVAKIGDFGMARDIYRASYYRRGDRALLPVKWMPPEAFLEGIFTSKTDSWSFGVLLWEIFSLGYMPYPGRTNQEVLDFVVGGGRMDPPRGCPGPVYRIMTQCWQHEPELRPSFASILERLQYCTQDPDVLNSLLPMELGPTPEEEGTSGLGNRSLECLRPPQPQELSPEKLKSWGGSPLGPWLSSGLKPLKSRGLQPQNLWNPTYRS
T4 sequence (Q86UX6 whole entry): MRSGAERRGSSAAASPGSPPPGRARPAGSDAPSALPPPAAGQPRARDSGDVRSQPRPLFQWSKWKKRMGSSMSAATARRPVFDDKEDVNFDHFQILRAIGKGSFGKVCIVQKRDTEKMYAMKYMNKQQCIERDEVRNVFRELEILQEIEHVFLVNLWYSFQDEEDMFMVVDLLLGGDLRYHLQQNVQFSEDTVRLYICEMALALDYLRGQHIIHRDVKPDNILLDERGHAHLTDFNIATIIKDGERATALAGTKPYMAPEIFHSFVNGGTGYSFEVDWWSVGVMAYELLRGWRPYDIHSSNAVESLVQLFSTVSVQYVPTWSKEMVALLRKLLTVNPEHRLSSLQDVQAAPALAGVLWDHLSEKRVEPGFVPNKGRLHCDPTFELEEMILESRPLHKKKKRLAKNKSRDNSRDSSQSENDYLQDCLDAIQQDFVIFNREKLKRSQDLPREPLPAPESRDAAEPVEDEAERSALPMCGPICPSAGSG
Epidermal growth factor receptor (Homo sapiens), P00533 [L858R], sequence (P00533 whole entry L858R): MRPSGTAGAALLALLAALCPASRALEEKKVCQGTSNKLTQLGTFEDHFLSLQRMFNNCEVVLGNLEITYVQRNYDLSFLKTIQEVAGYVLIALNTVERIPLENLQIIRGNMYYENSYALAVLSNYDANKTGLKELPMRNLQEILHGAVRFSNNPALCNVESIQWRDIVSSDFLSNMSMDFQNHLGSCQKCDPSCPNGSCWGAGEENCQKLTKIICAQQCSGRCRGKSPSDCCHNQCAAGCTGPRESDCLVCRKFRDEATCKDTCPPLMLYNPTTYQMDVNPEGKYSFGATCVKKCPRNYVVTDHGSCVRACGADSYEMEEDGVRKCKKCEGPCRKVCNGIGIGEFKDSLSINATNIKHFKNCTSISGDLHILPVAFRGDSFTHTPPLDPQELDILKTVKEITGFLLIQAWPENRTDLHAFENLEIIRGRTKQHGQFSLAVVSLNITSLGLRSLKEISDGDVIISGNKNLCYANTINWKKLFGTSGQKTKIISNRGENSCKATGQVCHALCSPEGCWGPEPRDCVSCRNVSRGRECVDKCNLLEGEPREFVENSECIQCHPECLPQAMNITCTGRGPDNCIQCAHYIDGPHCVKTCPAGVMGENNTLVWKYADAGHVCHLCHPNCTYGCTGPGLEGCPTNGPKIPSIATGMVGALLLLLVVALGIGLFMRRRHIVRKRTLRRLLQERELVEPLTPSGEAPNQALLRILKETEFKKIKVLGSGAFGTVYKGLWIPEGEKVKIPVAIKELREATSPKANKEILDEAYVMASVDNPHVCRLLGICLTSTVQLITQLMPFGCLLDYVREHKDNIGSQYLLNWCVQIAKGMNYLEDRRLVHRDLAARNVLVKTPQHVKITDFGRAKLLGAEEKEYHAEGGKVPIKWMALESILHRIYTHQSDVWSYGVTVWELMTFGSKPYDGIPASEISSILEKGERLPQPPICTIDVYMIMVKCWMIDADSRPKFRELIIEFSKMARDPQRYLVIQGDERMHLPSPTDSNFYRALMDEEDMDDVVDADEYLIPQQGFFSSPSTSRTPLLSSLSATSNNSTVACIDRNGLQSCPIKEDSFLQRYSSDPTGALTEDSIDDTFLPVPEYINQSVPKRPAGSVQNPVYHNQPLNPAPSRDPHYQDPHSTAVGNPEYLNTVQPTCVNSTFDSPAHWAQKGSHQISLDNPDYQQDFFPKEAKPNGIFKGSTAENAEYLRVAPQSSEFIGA

Kd [1]: > 10 µM
Kd [2]: > 10 µM
Kd [3]: > 10 µM
% of control [4]: 0%
% of control [5]: 0%
Kd [6]: > 10 µM
% of control [7]: 8.6%
% of control [8]: 0%
% of control [9]: 0%
% of control [10]: 0%
Kd [11]: > 10 µM
Kd [12]: > 10 µM
Compound: O=C(NCc1ccccc1)c1ccc(S(=O)(=O)NCc2ccccc2)cc1

Kd [13]: > 10 µM
% of control [14]: 0%
% of control [15]: 0%
% of control [16]: 1.7%
Kd [17]: > 10 µM
% of control [18]: 0%
% of control [19]: 4.9%
Kd [20]: > 10 µM
Kd [21]: > 10 µM
% of control [22]: 0%
Compound: CCCCN(Cc1ccccc1)C(=O)c1ccc(S(=O)(=O)Nc2ccccc2)cc1
